Test results published in patent US12304890B2, “R-type pyridyloxycarboxylic acid, salt and ester derivative thereof, and preparation method therefor, and herbicidal composition and application thereof” (Qingdao Kingagroot Chemical Compound Co., Ltd., priority 2018, dated 2025).

Columns and labels:
Format in all cases: in vivo
[1] = test system: Semen Euphorbiae Lathyridis; experiment: Post-emergence test experiment, Semen Euphorbiae Lathyridis; conditions: for Semen Euphorbiae Lathyridis, activity level (growth inhibition rate): 3 weeks
Description: (§1) The above described growth inhibition rate is fresh weight inhibition rate.
(§2) Post-emergence test experiment: Monocotyledonous and dicotyledonous weed seeds and main crop seeds (i. e. wheat, corn, rice, soybean, cotton, oilseed, millet and sorghum.) were put into a plastic pot loaded with soil. Then covered with 0.5-2 cm soil, the seeds were allowed to grow in good greenhouse environment. The test plants were treated at 2-3 leaf stage 2 weeks after sowing. The test compounds of the invention were dissolved with acetone respectively, then added with tween-80, and using 1.5 liters per hectare of an emulsible concentrate of methyl oleate as a synergist, and diluted by certain amount of water to certain concentration. The solution was sprayed to the plants with a sprayer. Then the plants were cultured for 3 weeks in the greenhouse, and the experiment result of weed controlling effect was listed in tables 4-5.

[2] = test system: Monocotyledonous and dicotyledonous weed seeds and main crop seeds; experiment: Post-emergence test experiment, other weeds and crops (Table 4, 1000 g a.i./ha); conditions: 3 weeks in greenhouse, fresh weight inhibition
Summary of the method: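 Growth inhibition is scored on fresh weight. Spray solutions were made in acetone with tween-80, diluted in water, plus 1.5 L/ha methyl oleate emulsible concentrate. Plants from greenhouse-grown weed and crop seeds were treated post-emergence at 2-3 leaves, 2 weeks after sowing.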

[3] = test system: rice; experiment: Post-emergence test experiment, rice (crop selectivity); conditions: 3 weeks
Description: as §1, §2

[4] = test system: Digitaria sanguinalis; experiment: Post-emergence test experiment, Digitaria sanguinalis; conditions: for Digitaria sanguinalis, activity level (growth inhibition rate): 3 weeks; for Activity level (growth inhibition rate), Digitaria sanguinalis: 1000 g a.i./ha, 3 weeks in greenhouse, fresh weight inhibition
Summary of the method: (§3)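 Test compounds dissolve in acetone, receive tween-80 and a methyl oleate emulsible concentrate synergist (1.5 liters per hectare), then are diluted in water and sprayed onto 2-3 leaf stage plants. After 3 weeks of greenhouse culture, fresh weight inhibition is determined.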

[5] = test system: Echinochloa crusgalli; experiment: Post-emergence test experiment, Echinochloa crusgalli; conditions: for Echinochloa crusgalli, activity level (growth inhibition rate): 3 weeks; for Activity level (growth inhibition rate), Echinochloa crusgalli: 1000 g a.i./ha, 3 weeks in greenhouse, fresh weight inhibition
Summary of the method: as §3

[6] = 200 g a.i./ha, weed resistant to cyhalofop-butyl
[7] = 200 g a.i./ha, weed resistant to ALS inhibitor and ACCe herbicides

Compound	Semen Euphorbiae Lathyridis, activity level (growth inhibition rate) [1, 6]	Activity level (growth inhibition rate), Abutilon theophrasti Medic. [2]	Activity level (growth inhibition rate), Galium aparine [2]	Activity level (growth inhibition rate), Monochoria Vaginalis [2]	rice, activity level (growth inhibition rate) ([3]; 200 g a.i./ha)	Digitaria sanguinalis, activity level (growth inhibition rate) [4, 6]	Activity level (growth inhibition rate), Digitaria sanguinalis [4]	Echinochloa crusgalli, activity level (growth inhibition rate) [5, 7]	Activity level (growth inhibition rate), Echinochloa crusgalli [5]	other results
CCCCOCCOC(=O)C(C)Oc1nc(F)c(Cl)c(N)c1Cl (centres unmarked) [Compound 2-271]	5 (Level 5: the growth inhibition rate is greater than 85%)	5 (Level 5: the growth inhibition rate is greater than 85%)	5 (Level 5: the growth inhibition rate is greater than 85%)	5 (Level 5: the growth inhibition rate is greater than 85%)	0 (Level 0: the growth inhibition rate is less than 5%)	5 (Level 5: the growth inhibition rate is greater than 85%)	5 (Level 5: the growth inhibition rate is greater than 85%)	5 (Level 5: the growth inhibition rate is greater than 85%)	5 (Level 5: the growth inhibition rate is greater than 85%)	
CCCCCSC(=O)[C@@H](C)Oc1nc(F)c(Cl)c(N)c1Cl [Compound 2-86]	5 (Level 5: the growth inhibition rate is greater than 85%)	5 (Level 5: the growth inhibition rate is greater than 85%)	5 (Level 5: the growth inhibition rate is greater than 85%)	5 (Level 5: the growth inhibition rate is greater than 85%)	0 (Level 0: the growth inhibition rate is less than 5%)	5 (Level 5: the growth inhibition rate is greater than 85%)	5 (Level 5: the growth inhibition rate is greater than 85%)	5 (Level 5: the growth inhibition rate is greater than 85%)	5 (Level 5: the growth inhibition rate is greater than 85%)	
CC(Oc1nc(F)c(Cl)c(N)c1Cl)C(=O)OCC1CCCO1 (centres unmarked) [Compound 2-298]	5 (Level 5: the growth inhibition rate is greater than 85%)	5 (Level 5: the growth inhibition rate is greater than 85%)	5 (Level 5: the growth inhibition rate is greater than 85%)	5 (Level 5: the growth inhibition rate is greater than 85%)		5 (Level 5: the growth inhibition rate is greater than 85%)	5 (Level 5: the growth inhibition rate is greater than 85%)	5 (Level 5: the growth inhibition rate is greater than 85%)	5 (Level 5: the growth inhibition rate is greater than 85%)	Semen Euphorbiae Lathyridis, activity level (growth inhibition rate) ([1]; 100 g a.i./ha, resistant weed): 5 (Level 5: the growth inhibition rate is greater than 85%); Semen Euphorbiae Lathyridis, activity level (growth inhibition rate) ([1]; 400 g a.i./ha, resistant weed): 5 (Level 5: the growth inhibition rate is greater than 85%); rice, activity level (growth inhibition rate) ([3]; 100 g a.i./ha): 0 (Level 0: the growth inhibition rate is less than 5%); rice, activity level (growth inhibition rate) ([3]; 400 g a.i./ha): 1 (Level 1: the growth inhibition rate is equal to or greater than 5% and less than 20%); Digitaria sanguinalis, activity level (growth inhibition rate) ([4]; 100 g a.i./ha, resistant weed): 5 (Level 5: the growth inhibition rate is greater than 85%); Digitaria sanguinalis, activity level (growth inhibition rate) ([4]; 400 g a.i./ha, resistant weed): 5 (Level 5: the growth inhibition rate is greater than 85%); Echinochloa crusgalli, activity level (growth inhibition rate) ([5]; 100 g a.i./ha, resistant weed): 4 (Level 4: the growth inhibition rate is equal to or greater than 60% and less than 85%); Echinochloa crusgalli, activity level (growth inhibition rate) ([5]; 400 g a.i./ha, resistant weed): 5 (Level 5: the growth inhibition rate is greater than 85%)
CC(C)=NOCCOC(=O)C(C)Oc1nc(F)c(Cl)c(N)c1Cl (centres unmarked) [Compound 2-287]	5 (Level 5: the growth inhibition rate is greater than 85%)	5 (Level 5: the growth inhibition rate is greater than 85%)	5 (Level 5: the growth inhibition rate is greater than 85%)	5 (Level 5: the growth inhibition rate is greater than 85%)	0 (Level 0: the growth inhibition rate is less than 5%)	5 (Level 5: the growth inhibition rate is greater than 85%)	5 (Level 5: the growth inhibition rate is greater than 85%)	5 (Level 5: the growth inhibition rate is greater than 85%)	5 (Level 5: the growth inhibition rate is greater than 85%)	
CCCC(C)COC(=O)[C@@H](C)Oc1nc(F)c(Cl)c(N)c1Cl (some centres unmarked) [Compound 2-103]	5 (Level 5: the growth inhibition rate is greater than 85%)	5 (Level 5: the growth inhibition rate is greater than 85%)	5 (Level 5: the growth inhibition rate is greater than 85%)	5 (Level 5: the growth inhibition rate is greater than 85%)	0 (Level 0: the growth inhibition rate is less than 5%)	5 (Level 5: the growth inhibition rate is greater than 85%)	5 (Level 5: the growth inhibition rate is greater than 85%)	5 (Level 5: the growth inhibition rate is greater than 85%)	5 (Level 5: the growth inhibition rate is greater than 85%)	
CCSC(=O)[C@@H](C)Oc1nc(F)c(Cl)c(N)c1Cl [Compound 2-72]	5 (Level 5: the growth inhibition rate is greater than 85%)	5 (Level 5: the growth inhibition rate is greater than 85%)	5 (Level 5: the growth inhibition rate is greater than 85%)	5 (Level 5: the growth inhibition rate is greater than 85%)	0 (Level 0: the growth inhibition rate is less than 5%)	5 (Level 5: the growth inhibition rate is greater than 85%)	5 (Level 5: the growth inhibition rate is greater than 85%)	5 (Level 5: the growth inhibition rate is greater than 85%)	5 (Level 5: the growth inhibition rate is greater than 85%)	
CCCCOC(=O)[C@@H](C)Oc1ccc(Oc2ccc(C#N)cc2F)cc1 [cyhalofop-butyl, reference compound]										inhibition at 300 g/ha ([1]; 504 h, read-out: Semen Euphorbiae Lathyridis, activity level (growth inhibition rate)): 5 to 20%; rice, activity level (growth inhibition rate) ([3]; 300 g a.i./ha): 0 (Level 0: the growth inhibition rate is less than 5%); inhibition at 300 g/ha ([4]; Digitaria sanguinalis, 504 h, read-out: Digitaria sanguinalis, activity level (growth inhibition rate)): 5 to 20%; inhibition at 300 g/ha ([5]; Echinochloa crus-galli, 504 h, read-out: Echinochloa crusgalli, activity level (growth inhibition rate)): 5 to 20%
